The record followed here is the supplement of paper PMC10307832.

Holding throughout (assay): relative viability (nuclei count vs DMSO), 5 days (fraction); higher = more cells survive
Compound in the experiment “CUDC-101 + Crizotinib”: C#Cc1cccc(Nc2ncnc3cc(OC)c(OCCCCCCC(=O)NO)cc23)c1 [CUDC-101] + C[C@@H](Oc1cc(-c2cnn(C3CCNCC3)c2)cnc1N)c1c(Cl)ccc(F)c1Cl [Crizotinib] (partner 1 µM)
The essentials:
(§1)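 Lung cancer cell lines in 1536-well plates were dosed by pin tool the day after seeding, either with one drug alone or with a fixed anchor-drug dose plus five library-drug doses (not always all listed) in √10 steps. After 5 days, cells were fixed and their nuclei stained in one step (final 0.05% Triton X-100, 1% formaldehyde, 1 ug/ml Hoechst), then counted on 4× images. Relative viability is the nuclei count in treated wells divided by that in vehicle wells. Values are medians of duplicate plates.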

Compound in the experiment “NVP-TAE684 + Foretinib”: COc1cc(N2CCC(N3CCN(C)CC3)CC2)ccc1Nc1ncc(Cl)c(Nc2ccccc2S(=O)(=O)C(C)C)n1 [NVP-TAE684] + COc1cc2c(Oc3ccc(NC(=O)C4(C(=O)Nc5ccc(F)cc5)CC4)cc3F)ccnc2cc1OCCCN1CCOCC1 [Foretinib] (partner 0.25 µM)
The essentials: as §1

Compound in the experiment “NVP-TAE684 + Pemetrexed”: COc1cc(N2CCC(N3CCN(C)CC3)CC2)ccc1Nc1ncc(Cl)c(Nc2ccccc2S(=O)(=O)C(C)C)n1 [NVP-TAE684] + Nc1nc2[nH]cc(CCc3ccc(C(=O)N[C@@H](CCC(=O)O)C(=O)O)cc3)c2c(=O)[nH]1 [Pemetrexed] (partner 0.2 µM)
The method, boiled down:
as §1

Compound in the experiment “NVP-TAE684 + Decitabine”: COc1cc(N2CCC(N3CCN(C)CC3)CC2)ccc1Nc1ncc(Cl)c(Nc2ccccc2S(=O)(=O)C(C)C)n1 [NVP-TAE684] + Nc1ncn([C@H]2C[C@H](O)[C@@H](CO)O2)c(=O)n1 [Decitabine] (partner 2 µM)
The essentials:
as §1

Compound in the experiment “Vandetanib + Lapatinib”: COc1cc2/c(=N/c3ccc(Br)cc3F)nc[nH]c2cc1OCC1CCN(C)CC1 [Vandetanib] + CS(=O)(=O)CCNCc1ccc(-c2ccc3ncnc(Nc4ccc(OCc5cccc(F)c5)c(Cl)c4)c3c2)o1 [Lapatinib] (partner 2 µM)
The method, boiled down: as §1

Regarding HCC-366, the relative viability with CUDC-101 + Crizotinib (first compound 0.01 µM) was 0.531; with CUDC-101 + Crizotinib (first compound 0.03162 µM) it was 0.535; in the experiment with CUDC-101 + Crizotinib (first compound 0.1 µM) it was 0.557; with CUDC-101 + Crizotinib (first compound 0.3162 µM), 0.5; in the experiment with CUDC-101 + Crizotinib (first compound 1 µM), 0.372; in the experiment with NVP-TAE684 + Foretinib (first compound 0.2 µM), 1.07. The relative viability was 0.935 in the experiment with NVP-TAE684 + Foretinib (first compound 0.6325 µM); 0.685 with NVP-TAE684 + Foretinib (first compound 2 µM); 0.197 in the experiment with NVP-TAE684 + Pemetrexed (first compound 0.2 µM); 0.178 with NVP-TAE684 + Pemetrexed (first compound 0.6325 µM); 0.227 with NVP-TAE684 + Pemetrexed (first compound 2 µM); 0.37 in the experiment with NVP-TAE684 + Decitabine (first compound 0.2 µM). In addition, the relative viability with NVP-TAE684 + Decitabine (first compound 0.6325 µM) came to 0.401; with NVP-TAE684 + Decitabine (first compound 2 µM), 0.315; with Vandetanib + Lapatinib (first compound 0.02 µM), 0.931; with Vandetanib + Lapatinib (first compound 0.06325 µM), 0.978; in the experiment with Vandetanib + Lapatinib (first compound 0.2 µM) it was 1.18; with Vandetanib + Lapatinib (first compound 0.6325 µM), 1.18. Moreover, the relative viability with Vandetanib + Lapatinib (first compound 2 µM) is 1.09.

For the cell line NCI-H1437, the relative viability came to 1.13 with CUDC-101 + Crizotinib (first compound 0.01 µM); 0.862 in the experiment with CUDC-101 + Crizotinib (first compound 0.03162 µM); 0.963 with CUDC-101 + Crizotinib (first compound 0.1 µM); 0.941 in the experiment with CUDC-101 + Crizotinib (first compound 0.3162 µM); 0.916 with CUDC-101 + Crizotinib (first compound 1 µM); 1.25 with NVP-TAE684 + Foretinib (first compound 0.2 µM). The relative viability turned out to be 1.27 in the experiment with NVP-TAE684 + Foretinib (first compound 0.6325 µM); 1.29 in the experiment with NVP-TAE684 + Foretinib (first compound 2 µM); 0.354 with NVP-TAE684 + Pemetrexed (first compound 0.2 µM); 0.327 with NVP-TAE684 + Pemetrexed (first compound 0.6325 µM); 0.243 in the experiment with NVP-TAE684 + Pemetrexed (first compound 2 µM); 0.596 in the experiment with NVP-TAE684 + Decitabine (first compound 0.2 µM). Also, the relative viability came out at 0.548 with NVP-TAE684 + Decitabine (first compound 0.6325 µM); 0.474 with NVP-TAE684 + Decitabine (first compound 2 µM); 0.758 in the experiment with Vandetanib + Lapatinib (first compound 0.02 µM); 0.767 with Vandetanib + Lapatinib (first compound 0.06325 µM); 0.764 with Vandetanib + Lapatinib (first compound 0.2 µM); 0.76 with Vandetanib + Lapatinib (first compound 0.6325 µM). Further, the relative viability in the experiment with Vandetanib + Lapatinib (first compound 2 µM) stood at 0.806.

With EPLC-272H, the relative viability in the experiment with CUDC-101 + Crizotinib (first compound 0.01 µM) came to 0.904; with CUDC-101 + Crizotinib (first compound 0.03162 µM) it was 0.904; with CUDC-101 + Crizotinib (first compound 0.1 µM) it was 0.86; in the experiment with CUDC-101 + Crizotinib (first compound 0.3162 µM), 0.751; in the experiment with CUDC-101 + Crizotinib (first compound 1 µM), 0.582; in the experiment with NVP-TAE684 + Foretinib (first compound 0.2 µM) it was 0.756. Also, the relative viability was 0.639 in the experiment with NVP-TAE684 + Foretinib (first compound 0.6325 µM); 0.247 with NVP-TAE684 + Foretinib (first compound 2 µM); 0.425 with NVP-TAE684 + Pemetrexed (first compound 0.2 µM); 0.297 with NVP-TAE684 + Pemetrexed (first compound 0.6325 µM); 0.15 with NVP-TAE684 + Pemetrexed (first compound 2 µM); 0.326 in the experiment with NVP-TAE684 + Decitabine (first compound 0.2 µM). Moreover, the relative viability was 0.357 in the experiment with NVP-TAE684 + Decitabine (first compound 0.6325 µM); 0.299 with NVP-TAE684 + Decitabine (first compound 2 µM); 1.05 with Vandetanib + Lapatinib (first compound 0.02 µM); 0.791 with Vandetanib + Lapatinib (first compound 0.06325 µM); 0.933 in the experiment with Vandetanib + Lapatinib (first compound 0.2 µM); 1.02 with Vandetanib + Lapatinib (first compound 0.6325 µM). In addition, in the experiment with Vandetanib + Lapatinib (first compound 2 µM), the relative viability turned out to be 0.168.

Take HCC-15: the relative viability with CUDC-101 + Crizotinib (first compound 0.01 µM) was found to be 0.804; in the experiment with CUDC-101 + Crizotinib (first compound 0.03162 µM) it was 0.836; with CUDC-101 + Crizotinib (first compound 0.1 µM), 0.798; in the experiment with CUDC-101 + Crizotinib (first compound 0.3162 µM) it was 0.843; in the experiment with CUDC-101 + Crizotinib (first compound 1 µM) it was 0.715; in the experiment with NVP-TAE684 + Foretinib (first compound 0.2 µM), 1.09. For the same cell line, the relative viability is 0.951 with NVP-TAE684 + Foretinib (first compound 0.6325 µM); 0.453 with NVP-TAE684 + Foretinib (first compound 2 µM); 0.245 in the experiment with NVP-TAE684 + Pemetrexed (first compound 0.2 µM); 0.204 with NVP-TAE684 + Pemetrexed (first compound 0.6325 µM); 0.182 with NVP-TAE684 + Pemetrexed (first compound 2 µM); 0.582 with NVP-TAE684 + Decitabine (first compound 0.2 µM). For the same cell line, the relative viability with NVP-TAE684 + Decitabine (first compound 0.6325 µM) was 0.524; with NVP-TAE684 + Decitabine (first compound 2 µM) it was 0.484; with Vandetanib + Lapatinib (first compound 0.02 µM) it was 0.824; in the experiment with Vandetanib + Lapatinib (first compound 0.06325 µM), 0.772; with Vandetanib + Lapatinib (first compound 0.2 µM), 0.798; with Vandetanib + Lapatinib (first compound 0.6325 µM), 0.878. For the same cell line, the relative viability with Vandetanib + Lapatinib (first compound 2 µM) was found to be 0.937.

For the cell line NCI-H2347, the relative viability with CUDC-101 + Crizotinib (first compound 0.01 µM) turned out to be 0.749; with CUDC-101 + Crizotinib (first compound 0.03162 µM), 0.68; with CUDC-101 + Crizotinib (first compound 0.1 µM), 0.714; with CUDC-101 + Crizotinib (first compound 0.3162 µM), 0.673; with CUDC-101 + Crizotinib (first compound 1 µM) it was 0.721; with NVP-TAE684 + Foretinib (first compound 0.6325 µM), 1.15. For the same cell line, the relative viability is 0.521 with NVP-TAE684 + Foretinib (first compound 2 µM); 0.431 with NVP-TAE684 + Pemetrexed (first compound 0.2 µM); 0.38 with NVP-TAE684 + Pemetrexed (first compound 0.6325 µM); 0.406 in the experiment with NVP-TAE684 + Pemetrexed (first compound 2 µM); 0.602 with NVP-TAE684 + Decitabine (first compound 0.2 µM); 0.679 in the experiment with NVP-TAE684 + Decitabine (first compound 0.6325 µM). In addition, the relative viability with NVP-TAE684 + Decitabine (first compound 2 µM) was 0.571; with Vandetanib + Lapatinib (first compound 0.02 µM), 0.972; with Vandetanib + Lapatinib (first compound 0.06325 µM), 0.701; in the experiment with Vandetanib + Lapatinib (first compound 0.2 µM), 0.913; with Vandetanib + Lapatinib (first compound 0.6325 µM), 0.964; in the experiment with Vandetanib + Lapatinib (first compound 2 µM) it was 0.89.

As to COR-L 105, the relative viability in the experiment with CUDC-101 + Crizotinib (first compound 0.01 µM) was determined as 0.724; in the experiment with CUDC-101 + Crizotinib (first compound 0.03162 µM), 0.825; with CUDC-101 + Crizotinib (first compound 0.1 µM) it was 0.725; with CUDC-101 + Crizotinib (first compound 0.3162 µM) it was 0.433; with CUDC-101 + Crizotinib (first compound 1 µM) it was 0.267; with NVP-TAE684 + Foretinib (first compound 0.2 µM), 1.02. Moreover, the relative viability with NVP-TAE684 + Foretinib (first compound 0.6325 µM) was determined as 1.4; with NVP-TAE684 + Foretinib (first compound 2 µM), 0.897; in the experiment with NVP-TAE684 + Pemetrexed (first compound 0.2 µM) it was 1.01; in the experiment with NVP-TAE684 + Pemetrexed (first compound 0.6325 µM), 0.98; in the experiment with NVP-TAE684 + Decitabine (first compound 0.2 µM), 0.681; with NVP-TAE684 + Decitabine (first compound 0.6325 µM), 0.701. The relative viability was determined as 0.429 with NVP-TAE684 + Decitabine (first compound 2 µM); 0.322 with Vandetanib + Lapatinib (first compound 0.02 µM); 0.307 in the experiment with Vandetanib + Lapatinib (first compound 0.06325 µM); 0.325 with Vandetanib + Lapatinib (first compound 0.2 µM); 0.366 in the experiment with Vandetanib + Lapatinib (first compound 0.6325 µM); 0.356 with Vandetanib + Lapatinib (first compound 2 µM).

As to NCI-H1650, the relative viability with CUDC-101 + Crizotinib (first compound 0.01 µM) turned out to be 0.859; in the experiment with CUDC-101 + Crizotinib (first compound 0.03162 µM) it was 0.782; with CUDC-101 + Crizotinib (first compound 0.1 µM) it was 0.942; with CUDC-101 + Crizotinib (first compound 0.3162 µM), 0.796; with CUDC-101 + Crizotinib (first compound 1 µM), 0.595; with NVP-TAE684 + Foretinib (first compound 0.2 µM), 1.06. Besides, the relative viability stood at 1.14 with NVP-TAE684 + Foretinib (first compound 0.6325 µM); 0.556 with NVP-TAE684 + Foretinib (first compound 2 µM); 0.382 with NVP-TAE684 + Pemetrexed (first compound 0.2 µM); 0.35 with NVP-TAE684 + Pemetrexed (first compound 0.6325 µM); 0.353 in the experiment with NVP-TAE684 + Pemetrexed (first compound 2 µM); 0.399 with NVP-TAE684 + Decitabine (first compound 0.2 µM). The relative viability in the experiment with NVP-TAE684 + Decitabine (first compound 0.6325 µM) worked out at 0.411; with NVP-TAE684 + Decitabine (first compound 2 µM) it was 0.343; with Vandetanib + Lapatinib (first compound 0.02 µM) it was 0.704; with Vandetanib + Lapatinib (first compound 0.06325 µM), 0.734; in the experiment with Vandetanib + Lapatinib (first compound 0.6325 µM), 0.988; with Vandetanib + Lapatinib (first compound 2 µM), 0.765.
